# The supplement of paper PMC10307832
# Legend:
# Experiment in all cases: relative viability (nuclei count vs DMSO), 5 days (fraction); higher = more cells survive
# LCLC-103H = test system: LCLC-103H
# Summary of the method: (§1)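 One day after seeding in 1536-well plates, lung cancer cell lines were dosed by pin tool. Dosing was either single-drug or a fixed anchor-drug dose plus five library-drug doses (not always all listed) in √10 steps. After 5 days, nuclei were stained in one fix-and-stain step and counted on 4× images, and relative viability is the nuclei count of treated wells over that of vehicle wells, given as the median of duplicate plates.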
# NCI-H2405 = test system: NCI-H2405
# Summary of the method: as §1
# 201T = test system: 201T
# Summary of the method: as §1
# NCI-H1792 = test system: NCI-H1792
# Summary of the method: as §1
# HCC-78 = test system: HCC-78
# Summary of the method: as §1
# NCI-H1793 = test system: NCI-H1793
# Summary of the method: as §1
# EPLC-272H = test system: EPLC-272H
# Summary of the method: as §1
# NCI-H23 = test system: NCI-H23
# Summary of the method: as §1
# NCI-H1395 = test system: NCI-H1395
# Summary of the method: as §1
# RERF-LC-KJ = test system: RERF-LC-KJ
# Summary of the method: as §1
# LOU-NH91 = test system: LOU-NH91
# Summary of the method: as §1
# EMC-BAC-2 = test system: EMC-BAC-2
# Summary of the method: as §1
# NCI-H1437 = test system: NCI-H1437
# Summary of the method: as §1
# NCI-H647 = test system: NCI-H647
# Summary of the method: as §1
# NCI-H1915 = test system: NCI-H1915
# Summary of the method: as §1
# NCI-H2342 = test system: NCI-H2342
# Summary of the method: as §1
# NCI-H1651 = test system: NCI-H1651
# Summary of the method: as §1
# NCI-H1975 = test system: NCI-H1975
# Summary of the method: as §1
# ABC-1 = test system: ABC-1
# Summary of the method: as §1
# UMC-11 = test system: UMC-11
# Summary of the method: as §1
# NCI-H661 = test system: NCI-H661
# Summary of the method: as §1
# NCI-H2023 = test system: NCI-H2023
# Summary of the method: as §1
# SK-LU-1 = test system: SK-LU-1
# Summary of the method: as §1
structure (smiles),measurement,setting,value
CCCCCCCCCCCC1=C(O)C(=O)C=C(O)C1=O [Embelin] + NC(=O)Nc1cc(-c2cccc(F)c2)sc1C(=O)N[C@H]1CCCNC1 [AZD7762] (partner 0.2 µM),relative viability,LCLC-103H; first compound 0.08 µM,0.79
same,relative viability,LCLC-103H; first compound 0.8 µM,0.866
same,relative viability,LCLC-103H; first compound 2.53 µM,0.886
same,relative viability,LCLC-103H; first compound 8 µM,0.684
same,relative viability,NCI-H2405; first compound 0.08 µM,0.696
same,relative viability,NCI-H2405; first compound 0.8 µM,0.838
same,relative viability,NCI-H2405; first compound 2.53 µM,0.876
same,relative viability,NCI-H2405; first compound 8 µM,0.716
same,relative viability,201T; first compound 0.08 µM,0.713
same,relative viability,201T; first compound 0.8 µM,0.634
same,relative viability,201T; first compound 2.53 µM,0.67
same,relative viability,201T; first compound 8 µM,0.61
same,relative viability,NCI-H1792; first compound 0.08 µM,0.853
same,relative viability,NCI-H1792; first compound 0.8 µM,0.849
same,relative viability,NCI-H1792; first compound 2.53 µM,0.814
same,relative viability,NCI-H1792; first compound 8 µM,0.547
same,relative viability,HCC-78; first compound 0.08 µM,0.555
same,relative viability,HCC-78; first compound 0.8 µM,0.773
same,relative viability,HCC-78; first compound 2.53 µM,0.661
same,relative viability,HCC-78; first compound 8 µM,0.647
same,relative viability,NCI-H1793; first compound 0.08 µM,0.635
same,relative viability,NCI-H1793; first compound 0.8 µM,0.927
same,relative viability,NCI-H1793; first compound 2.53 µM,0.472
same,relative viability,NCI-H1793; first compound 8 µM,0.408
same,relative viability,EPLC-272H; first compound 0.08 µM,0.181
same,relative viability,EPLC-272H; first compound 0.8 µM,0.296
same,relative viability,EPLC-272H; first compound 2.53 µM,0.21
same,relative viability,EPLC-272H; first compound 8 µM,0.188
same,relative viability,NCI-H23; first compound 0.08 µM,0.27
same,relative viability,NCI-H23; first compound 0.8 µM,0.297
same,relative viability,NCI-H23; first compound 2.53 µM,0.3
same,relative viability,NCI-H23; first compound 8 µM,0.248
same,relative viability,NCI-H1395; first compound 0.08 µM,0.434
same,relative viability,NCI-H1395; first compound 0.8 µM,0.425
same,relative viability,NCI-H1395; first compound 2.53 µM,0.384
same,relative viability,NCI-H1395; first compound 8 µM,0.366
same,relative viability,RERF-LC-KJ; first compound 0.08 µM,1.02
same,relative viability,RERF-LC-KJ; first compound 0.8 µM,1.15
same,relative viability,RERF-LC-KJ; first compound 2.53 µM,1.13
same,relative viability,RERF-LC-KJ; first compound 8 µM,1
same,relative viability,LOU-NH91; first compound 0.08 µM,0.795
same,relative viability,LOU-NH91; first compound 0.8 µM,0.932
same,relative viability,LOU-NH91; first compound 2.53 µM,0.779
same,relative viability,LOU-NH91; first compound 8 µM,0.729
same,relative viability,EMC-BAC-2; first compound 0.08 µM,1.12
same,relative viability,EMC-BAC-2; first compound 0.8 µM,1.22
same,relative viability,EMC-BAC-2; first compound 2.53 µM,1.13
same,relative viability,EMC-BAC-2; first compound 8 µM,1.06
same,relative viability,NCI-H1437; first compound 0.08 µM,1.15
same,relative viability,NCI-H1437; first compound 0.8 µM,1.16
same,relative viability,NCI-H1437; first compound 2.53 µM,1.15
same,relative viability,NCI-H1437; first compound 8 µM,1.2
same,relative viability,NCI-H647; first compound 0.08 µM,0.379
same,relative viability,NCI-H647; first compound 0.8 µM,0.674
same,relative viability,NCI-H647; first compound 2.53 µM,0.365
same,relative viability,NCI-H647; first compound 8 µM,0.309
same,relative viability,NCI-H1915; first compound 0.08 µM,0.72
same,relative viability,NCI-H1915; first compound 0.8 µM,0.764
same,relative viability,NCI-H1915; first compound 2.53 µM,0.751
same,relative viability,NCI-H1915; first compound 8 µM,0.614
same,relative viability,NCI-H2342; first compound 0.08 µM,0.47
same,relative viability,NCI-H2342; first compound 0.8 µM,0.514
same,relative viability,NCI-H2342; first compound 2.53 µM,0.546
same,relative viability,NCI-H2342; first compound 8 µM,0.456
same,relative viability,NCI-H1651; first compound 0.08 µM,0.452
same,relative viability,NCI-H1651; first compound 0.8 µM,0.549
same,relative viability,NCI-H1651; first compound 2.53 µM,0.527
same,relative viability,NCI-H1651; first compound 8 µM,0.46
same,relative viability,NCI-H1975; first compound 0.08 µM,0.708
same,relative viability,NCI-H1975; first compound 0.8 µM,0.753
same,relative viability,NCI-H1975; first compound 2.53 µM,0.806
same,relative viability,NCI-H1975; first compound 8 µM,0.703
same,relative viability,ABC-1; first compound 0.08 µM,0.701
same,relative viability,ABC-1; first compound 0.8 µM,1.01
same,relative viability,ABC-1; first compound 2.53 µM,0.875
same,relative viability,ABC-1; first compound 8 µM,0.856
CCCCCCCCCCCC1=C(O)C(=O)C=C(O)C1=O [Embelin] + Nc1nc2[nH]cc(CCc3ccc(C(=O)N[C@@H](CCC(=O)O)C(=O)O)cc3)c2c(=O)[nH]1 [Pemetrexed] (partner 0.2 µM),relative viability,LCLC-103H; first compound 0.08 µM,0.49
same,relative viability,LCLC-103H; first compound 0.8 µM,0.485
same,relative viability,LCLC-103H; first compound 2.53 µM,0.449
same,relative viability,LCLC-103H; first compound 8 µM,0.458
same,relative viability,NCI-H2405; first compound 0.08 µM,1.09
same,relative viability,NCI-H2405; first compound 0.8 µM,1.15
same,relative viability,NCI-H2405; first compound 2.53 µM,1.18
same,relative viability,NCI-H2405; first compound 8 µM,0.818
same,relative viability,201T; first compound 0.08 µM,0.347
same,relative viability,201T; first compound 0.8 µM,0.326
same,relative viability,201T; first compound 2.53 µM,0.333
same,relative viability,201T; first compound 8 µM,0.299
same,relative viability,NCI-H1792; first compound 0.08 µM,0.815
same,relative viability,NCI-H1792; first compound 0.8 µM,0.817
same,relative viability,NCI-H1792; first compound 2.53 µM,1.06
same,relative viability,NCI-H1792; first compound 8 µM,0.382
same,relative viability,HCC-78; first compound 0.08 µM,0.924
same,relative viability,HCC-78; first compound 0.8 µM,0.895
same,relative viability,HCC-78; first compound 2.53 µM,0.982
same,relative viability,HCC-78; first compound 8 µM,0.949
same,relative viability,NCI-H1793; first compound 0.08 µM,0.82
same,relative viability,NCI-H1793; first compound 0.8 µM,1.06
same,relative viability,NCI-H1793; first compound 2.53 µM,1.18
same,relative viability,NCI-H1793; first compound 8 µM,0.37
same,relative viability,UMC-11; first compound 0.08 µM,0.812
same,relative viability,UMC-11; first compound 0.8 µM,0.849
same,relative viability,UMC-11; first compound 2.53 µM,0.928
same,relative viability,UMC-11; first compound 8 µM,0.806
same,relative viability,EPLC-272H; first compound 0.08 µM,0.361
same,relative viability,EPLC-272H; first compound 0.8 µM,0.302
same,relative viability,EPLC-272H; first compound 2.53 µM,0.331
same,relative viability,EPLC-272H; first compound 8 µM,0.247
same,relative viability,NCI-H661; first compound 0.08 µM,0.953
same,relative viability,NCI-H661; first compound 0.8 µM,0.936
same,relative viability,NCI-H661; first compound 2.53 µM,0.886
same,relative viability,NCI-H661; first compound 8 µM,0.896
same,relative viability,NCI-H2023; first compound 0.08 µM,0.206
same,relative viability,NCI-H2023; first compound 0.8 µM,0.244
same,relative viability,NCI-H2023; first compound 2.53 µM,0.226
same,relative viability,NCI-H2023; first compound 8 µM,0.249
same,relative viability,NCI-H23; first compound 0.08 µM,0.786
same,relative viability,NCI-H23; first compound 0.8 µM,0.675
same,relative viability,NCI-H23; first compound 2.53 µM,0.589
same,relative viability,NCI-H23; first compound 8 µM,0.665
same,relative viability,NCI-H1395; first compound 0.08 µM,0.828
same,relative viability,NCI-H1395; first compound 0.8 µM,1.03
same,relative viability,NCI-H1395; first compound 2.53 µM,0.856
same,relative viability,NCI-H1395; first compound 8 µM,0.585
same,relative viability,RERF-LC-KJ; first compound 0.08 µM,0.502
same,relative viability,RERF-LC-KJ; first compound 0.8 µM,0.498
same,relative viability,RERF-LC-KJ; first compound 2.53 µM,0.504
same,relative viability,RERF-LC-KJ; first compound 8 µM,0.474
same,relative viability,LOU-NH91; first compound 0.08 µM,0.357
same,relative viability,LOU-NH91; first compound 0.8 µM,0.385
same,relative viability,LOU-NH91; first compound 2.53 µM,0.381
same,relative viability,LOU-NH91; first compound 8 µM,0.466
same,relative viability,EMC-BAC-2; first compound 0.08 µM,0.472
same,relative viability,EMC-BAC-2; first compound 0.8 µM,0.53
same,relative viability,EMC-BAC-2; first compound 2.53 µM,0.399
same,relative viability,EMC-BAC-2; first compound 8 µM,0.49
same,relative viability,NCI-H1437; first compound 0.08 µM,0.339
same,relative viability,NCI-H1437; first compound 0.8 µM,0.306
same,relative viability,NCI-H1437; first compound 2.53 µM,0.317
same,relative viability,NCI-H1437; first compound 8 µM,0.215
same,relative viability,NCI-H647; first compound 0.08 µM,0.19
same,relative viability,NCI-H647; first compound 0.8 µM,0.246
same,relative viability,NCI-H647; first compound 2.53 µM,0.169
same,relative viability,NCI-H647; first compound 8 µM,0.214
same,relative viability,NCI-H1915; first compound 0.08 µM,0.518
same,relative viability,NCI-H1915; first compound 0.8 µM,0.488
same,relative viability,NCI-H1915; first compound 2.53 µM,0.558
same,relative viability,NCI-H1915; first compound 8 µM,0.55
same,relative viability,NCI-H2342; first compound 0.08 µM,0.738
same,relative viability,NCI-H2342; first compound 0.8 µM,0.806
same,relative viability,NCI-H2342; first compound 2.53 µM,0.859
same,relative viability,NCI-H2342; first compound 8 µM,0.814
same,relative viability,SK-LU-1; first compound 0.08 µM,0.975
same,relative viability,SK-LU-1; first compound 0.8 µM,1.13
same,relative viability,SK-LU-1; first compound 2.53 µM,0.962
same,relative viability,SK-LU-1; first compound 8 µM,0.988
same,relative viability,NCI-H1651; first compound 0.08 µM,0.58
same,relative viability,NCI-H1651; first compound 0.8 µM,0.613
same,relative viability,NCI-H1651; first compound 2.53 µM,0.656
same,relative viability,NCI-H1651; first compound 8 µM,0.642
same,relative viability,NCI-H1975; first compound 0.08 µM,0.313
same,relative viability,NCI-H1975; first compound 0.8 µM,0.286
same,relative viability,NCI-H1975; first compound 2.53 µM,0.285
same,relative viability,NCI-H1975; first compound 8 µM,0.311
